Assay results as given in patent publication EP2698384A1, “Detection of synthetic cannabinoids” (priority 2012, dated 2014).

system: Antibody to Immunogen III; type: binding, sheep; details: Cross-reactants at 100 ng/ml; 1000ng/ml; single level of cross reactants
Procedure: (§1) The wells of an enhanced binding 96 well polystyrene microtiter plate were coated with IgG fraction of antiserum raised to Immunogen VI, diluted in 10mM Tris, pH8.5 (125µl/well). The appropriate antibody coating dilution was determined using standard ELISA checkerboard techniques. The plate was incubated overnight at 4°C, washed 4 times over 10 minutes with Tris buffered saline containing Tween 20 (TBST) and tapped dry. Standard solutions of RCS-4 were prepared in TBST at 0, 0.3125, 0.625, 1.25, 2.5, 5, 10 and 20ng/ml, and 50µl of each was added to the appropriate wells (see figure 1). 75µl of conjugate (appropriate hapten-HRP) diluted in Tris buffer (pH 7.2) containing EDTA, D-mannitol, sucrose, thimerosal and BSA, was added to each of the wells. The appropriate dilution of conjugate was also determined using standard ELISA checkerboard techniques. The plate was incubated at 25°C for 1 hour. Excess unbound conjugate was removed by washing 6 times over a 10 minute period with TBST. 125µl oftetramethylbenzidine (TMB) substrate solution was added to each well of the plate that was then incubated for 20 minutes in the dark at room temperature. The reaction was terminated by addition of 125µl 0.2M H2SO4 to each well. The absorbance was then measured at 450nm using a microtiter plate reader. The data are inputted to a computer program called 'KC Junior'. It is a 4 parameter fit curve and allow the calculatation of concentrations between the standard runs. This program is used to calculate the IC50s by dividing the 0ng/ml OD value by 2 and obtaining the concentration value from the curve for this OD.
In a similar manner to that described above, the wells of a 96-well microtiter plate were coated with the IgG fraction of the antiserum raised to Immunogens I, II or III. Standard solutions (JWH-250 for Immunogen III) were applied at 0, 0.625, 1.25, 2.5, 5, 10, 20 and 40ng/ml and conjugate was employed as detection reagent.
(§2) The data set our in Tables 3 and 4 are generated using antibodies raised against the indicated Immunogens in a competitive binding assay with the indicated tracers, using the indicated standards: Table 2
(§3) In order to determine the specificity of the competitive ELISAs, standard solutions of a range of structurally similar synthetic cannabinoids and their metabolites were prepared in TBST. Using the calibration curves generated and employing a single level of cross reactants, these were used to determine the cross-reactivity of each immunoassay with these substances. Table 4: Cross reactivity of the competitive ELISAs for synthetic cannabinoids and their metabolites

SMILES	%B/B0 [%]
CCCCCn1cc(C(=O)c2c(C)ccc3ccccc23)c2ccccc21 [JWH 122 2-methylnaphthyl isomer]	80.25
CCCCCn1cc(C(=O)c2cccc3cc(C)ccc23)c2ccccc21 [JWH 122 6-methylnaphthyl isomer]	73.75
CCCCCn1cc(C(=O)c2cccc3ccc(C)cc23)c2ccccc21 [JWH 122 7-methylnaphthyl isomer]	71.72
CCCCCn1cc(C(=O)Cc2cccc(Cl)c2)c2ccccc21 [JWH 203 3-chloro isomer (JWH-237)]	22.69
CCCCCn1cc(C(=O)Cc2ccccc2OC)c2cc(O)ccc21 [JWH 250 5-hydroxyindole metabolite]	65.83
COc1ccccc1CC(=O)c1cn(CCCCCC(=O)O)c2ccccc12 [JWH 250 N-(5-carboxypentyl) metabo lite]	89.61
COc1ccccc1CC(=O)c1cn(CCCCCO)c2ccccc12 [JWH 250 N-(5-hydroxypentyl) metabo lite]	48.72
CCCCCn1cc(C(=O)Cc2cccc(C)c2)c2ccccc21 [JWH 251 3-methylphenyl isomer]	21.39
CCCCCn1c(C)c(C(=O)c2cccc3ccccc23)c2ccccc21 [JWH-007]	81.87
CCCCCC(C)n1c(C)c(C(=O)c2cccc3ccccc23)c2ccccc21 (stereo not drawn) [JWH-011]	93.19
CCCn1c(C)c(C(=O)c2cccc3ccccc23)c2ccccc21 [JWH-015]	93.97
CCCCn1c(C)c(C(=O)c2cccc3ccccc23)c2ccccc21 [JWH-016]	82.93
CCCCCn1cc(C(=O)c2cccc3ccccc23)c2ccc(OC)cc21 [JWH-018 6-methoxyindole analogue]	85.67
CC(C)(C)Cn1cc(C(=O)c2cccc3ccccc23)c2ccccc21 [JWH-018 N-(2,2-dimethylpropyl) isomer]	95.58
O=C(c1cccc2ccccc12)c1cn(CCCCCO)c2ccccc12 [JWH-018 N-(5-hydroxypentyl) metabo lite]	89.74
O=C(O)CCCCn1cc(C(=O)c2cccc3ccccc23)c2ccccc21 [JWH-018 N-pentanoic acid metabolite]	100.98
CCCCCn1cc(C(=O)c2cccc3ccccc23)c2ccccc21 [JWH-018]	78.39
CCCCCCn1cc(C(=O)c2cccc3ccccc23)c2ccccc21 [JWH-019]	88.06
CCCCCCCn1cc(C(=O)c2cccc3ccccc23)c2ccccc21 [JWH-020]	93.85
C=CCCCn1cc(C(=O)c2cccc3ccccc23)c2ccccc21 [JWH-022]	76.82

system: Antibody to Immunogen V; type: binding, sheep; details: Cross-reactants at 100 ng/ml; 1000ng/ml; single level of cross reactants
Procedure: as §1
In a similar manner to that described above, the wells of a 96-well microtiter plate were coated with the IgG fraction of the antiserum raised to Immunogens IV, V, VII or VIII. Standard solutions (RCS-8 for Immunogen V) were prepared in TBST at 0, 1.25, 2.5, 5, 10, 20, 40 and 80ng/ml and conjugate was employed as detection reagent.
as §2, §3

SMILES	%B/B0 [%]
CCCCCn1cc(C(=O)c2c(C)ccc3ccccc23)c2ccccc21 [JWH 122 2-methylnaphthyl isomer]	83.38
CCCCCn1cc(C(=O)c2cccc3cc(C)ccc23)c2ccccc21 [JWH 122 6-methylnaphthyl isomer]	77.08
CCCCCn1cc(C(=O)c2cccc3ccc(C)cc23)c2ccccc21 [JWH 122 7-methylnaphthyl isomer]	78.80
CCCCCn1cc(C(=O)Cc2cccc(Cl)c2)c2ccccc21 [JWH 203 3-chloro isomer (JWH-237)]	27.22
CCCCCn1cc(C(=O)Cc2ccccc2OC)c2cc(O)ccc21 [JWH 250 5-hydroxyindole metabolite]	37.39
COc1ccccc1CC(=O)c1cn(CCCCCC(=O)O)c2ccccc12 [JWH 250 N-(5-carboxypentyl) metabo lite]	8.60
COc1ccccc1CC(=O)c1cn(CCCCCO)c2ccccc12 [JWH 250 N-(5-hydroxypentyl) metabo lite]	6.88
CCCCCn1cc(C(=O)Cc2cccc(C)c2)c2ccccc21 [JWH 251 3-methylphenyl isomer]	26.65
CCCCCn1c(C)c(C(=O)c2cccc3ccccc23)c2ccccc21 [JWH-007]	75.22
CCCCCC(C)n1c(C)c(C(=O)c2cccc3ccccc23)c2ccccc21 (stereo not drawn) [JWH-011]	83.73
CCCn1c(C)c(C(=O)c2cccc3ccccc23)c2ccccc21 [JWH-015]	73.42
CCCCn1c(C)c(C(=O)c2cccc3ccccc23)c2ccccc21 [JWH-016]	69.38
CCCCCn1cc(C(=O)c2cccc3ccccc23)c2ccc(OC)cc21 [JWH-018 6-methoxyindole analogue]	73.60
CC(C)(C)Cn1cc(C(=O)c2cccc3ccccc23)c2ccccc21 [JWH-018 N-(2,2-dimethylpropyl) isomer]	67.14
O=C(c1cccc2ccccc12)c1cn(CCCCCO)c2ccccc12 [JWH-018 N-(5-hydroxypentyl) metabo lite]	70.25
O=C(O)CCCCn1cc(C(=O)c2cccc3ccccc23)c2ccccc21 [JWH-018 N-pentanoic acid metabolite]	72.42
CCCCCn1cc(C(=O)c2cccc3ccccc23)c2ccccc21 [JWH-018]	78.01
CCCCCCn1cc(C(=O)c2cccc3ccccc23)c2ccccc21 [JWH-019]	70.25
CCCCCCCn1cc(C(=O)c2cccc3ccccc23)c2ccccc21 [JWH-020]	71.43
C=CCCCn1cc(C(=O)c2cccc3ccccc23)c2ccccc21 [JWH-022]	61.86

system: Antibody to Immunogen VI; type: binding, sheep; details: Cross-reactants at 100 ng/ml; 1000ng/ml; single level of cross reactants
Procedure: as §1, §2, §3

SMILES	%B/B0 [%]
CCCCCn1cc(C(=O)c2c(C)ccc3ccccc23)c2ccccc21 [JWH 122 2-methylnaphthyl isomer]	90.59
CCCCCn1cc(C(=O)c2cccc3cc(C)ccc23)c2ccccc21 [JWH 122 6-methylnaphthyl isomer]	84.77
CCCCCn1cc(C(=O)c2cccc3ccc(C)cc23)c2ccccc21 [JWH 122 7-methylnaphthyl isomer]	86.92
CCCCCn1cc(C(=O)Cc2cccc(Cl)c2)c2ccccc21 [JWH 203 3-chloro isomer (JWH-237)]	72.53
CCCCCn1cc(C(=O)Cc2ccccc2OC)c2cc(O)ccc21 [JWH 250 5-hydroxyindole metabolite]	91.28
COc1ccccc1CC(=O)c1cn(CCCCCC(=O)O)c2ccccc12 [JWH 250 N-(5-carboxypentyl) metabo lite]	85.31
COc1ccccc1CC(=O)c1cn(CCCCCO)c2ccccc12 [JWH 250 N-(5-hydroxypentyl) metabo lite]	78.58
CCCCCn1cc(C(=O)Cc2cccc(C)c2)c2ccccc21 [JWH 251 3-methylphenyl isomer]	73.53
CCCCCn1c(C)c(C(=O)c2cccc3ccccc23)c2ccccc21 [JWH-007]	81.74
CCCCCC(C)n1c(C)c(C(=O)c2cccc3ccccc23)c2ccccc21 (stereo not drawn) [JWH-011]	88.22
CCCn1c(C)c(C(=O)c2cccc3ccccc23)c2ccccc21 [JWH-015]	77.06
CCCCn1c(C)c(C(=O)c2cccc3ccccc23)c2ccccc21 [JWH-016]	80.10
CCCCCn1cc(C(=O)c2cccc3ccccc23)c2ccc(OC)cc21 [JWH-018 6-methoxyindole analogue]	86.92
CC(C)(C)Cn1cc(C(=O)c2cccc3ccccc23)c2ccccc21 [JWH-018 N-(2,2-dimethylpropyl) isomer]	78.92
O=C(c1cccc2ccccc12)c1cn(CCCCCO)c2ccccc12 [JWH-018 N-(5-hydroxypentyl) metabo lite]	61.67
O=C(O)CCCCn1cc(C(=O)c2cccc3ccccc23)c2ccccc21 [JWH-018 N-pentanoic acid metabolite]	65.90
CCCCCn1cc(C(=O)c2cccc3ccccc23)c2ccccc21 [JWH-018]	82.47
CCCCCCn1cc(C(=O)c2cccc3ccccc23)c2ccccc21 [JWH-019]	78.02
CCCCCCCn1cc(C(=O)c2cccc3ccccc23)c2ccccc21 [JWH-020]	82.41
C=CCCCn1cc(C(=O)c2cccc3ccccc23)c2ccccc21 [JWH-022]	75.42
